Like-named read-outs stand apart in the source and are kept apart here.
How the values were obtained:
human CB2R = molecular target: T1, human CB2R (Homo sapiens, UniProt P34972); experiment: CB2R mediated modulation of cAMP synthesis; format: cell-based
T1 construct: host or cells: CHO cells
Method: B. CB2R Mediated Modulation of Camp Synthesis:
Compounds of the invention are evaluated for their CB2 agonist or inverse agonistic activity in accordance with the following experimental method.
(§1) CHO cells expressing human CB2R (Euroscreen) are plated at a density of 5000 cells per well in 384 well plates and incubated overnight at 37° C. After removing the media, the cells are treated with test compounds diluted in stimulation buffer containing 1 mM IBMX, 0.25% BSA and 10 uM Forskolin. The assay is incubated for 30 minutes at 37° C. Cells are lysed and the cAMP concentration is measured using DiscoverX-XS cAMP kit, following the manufacturer's protocol. In this setting, agonists will decrease forskolin induced production of cAMP while inverse agonists will further increase forskolin induced production of cAMP. EC50 of agonists are calculated as follows. The maximal amount of cAMP produced by forskolin compared to the level of cAMP inhibited by 1 uM CP55940 is defined as 100%. The EC50 value of each test compound is determined as the concentration at which 50% of the forskolin-stimulated cAMP synthesis is inhibited. Data is analyzed using a four-parameter logistic model. (Model 205 of XLfit 4.0).

human CB1R = molecular target: T2, human CB1R (Homo sapiens, UniProt P21554); experiment: CB1R mediated modulation of cAMP synthesis; format: cell-based; details: inhibition of forskolin-stimulated cAMP synthesis
T2 construct: host or cells: CHO cells
Method: C. CB1R Mediated Modulation of cAMP Synthesis:
Compounds of the invention are evaluated for their CB1 agonist or inverse agonistic activity in accordance with the following experimental method.
as §1, with “CB1R” for “CB2R”

[1] = CB1 EC50, CHO cells expressing human CB1R
[2] = CHO cells expressing human CB2R, inhibition of forskolin-stimulated cAMP synthesis, read-out: CB2 EC50
[3] = CHO cells expressing human CB1R, read-out: CB1 EC50

T2 sequence (P21554 whole entry): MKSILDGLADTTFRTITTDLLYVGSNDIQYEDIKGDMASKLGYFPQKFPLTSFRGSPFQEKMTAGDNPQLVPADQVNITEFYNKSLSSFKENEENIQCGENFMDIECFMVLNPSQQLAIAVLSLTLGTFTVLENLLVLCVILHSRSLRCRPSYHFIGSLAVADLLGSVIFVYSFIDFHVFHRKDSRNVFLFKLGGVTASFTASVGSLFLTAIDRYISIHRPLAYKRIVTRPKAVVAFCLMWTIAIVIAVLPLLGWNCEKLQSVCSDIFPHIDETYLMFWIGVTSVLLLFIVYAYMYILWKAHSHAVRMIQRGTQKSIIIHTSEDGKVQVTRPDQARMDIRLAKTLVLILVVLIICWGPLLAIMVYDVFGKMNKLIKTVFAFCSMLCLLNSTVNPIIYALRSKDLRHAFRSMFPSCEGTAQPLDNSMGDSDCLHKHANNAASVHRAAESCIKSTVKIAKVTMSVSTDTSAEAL
T1 sequence (P34972 whole entry): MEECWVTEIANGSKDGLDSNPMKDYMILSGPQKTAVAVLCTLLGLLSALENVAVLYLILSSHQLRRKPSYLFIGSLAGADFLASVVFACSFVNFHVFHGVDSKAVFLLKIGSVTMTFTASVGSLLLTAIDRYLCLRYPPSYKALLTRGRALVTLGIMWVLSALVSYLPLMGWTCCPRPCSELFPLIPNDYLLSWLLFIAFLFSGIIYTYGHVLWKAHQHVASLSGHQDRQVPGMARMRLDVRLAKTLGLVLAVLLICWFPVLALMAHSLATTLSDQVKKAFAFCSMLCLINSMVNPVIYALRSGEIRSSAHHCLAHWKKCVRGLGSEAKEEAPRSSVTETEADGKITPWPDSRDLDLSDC

SMILES | EC50 (human CB2R) | EC50 (human CB1R; [1]) | EC50 (human CB2R; [2]) | EC50 (human CB1R; [3])
Cc1ncc(C(C)(C)c2cc(NC(=O)C(C)(C)S(=O)(=O)C3CCOCC3)on2)o1 | 6.8 nM | > 200 µM | – | –
CC(C)(c1cc(NC(=O)C(C)(C)S(=O)(=O)C2CCOCC2)on1)c1cnc(-c2ccccc2)o1 | 21 nM | > 50 µM | – | –
CC(C)(C(=O)Nc1nc(-c2ncco2)n[nH]1)S(=O)(=O)C1CCOCC1 | 84 nM | > 50 µM | – | –
Cc1cc(-c2n[nH]c(NC(=O)C(C)(C)S(=O)(=O)C3CCOCC3)n2)no1 | – | – | 268 nM | > 50 µM
Cc1cc(-c2nnc(NC(=O)C(C)(C)S(=O)(=O)CCC(C)C)[nH]2)no1 | 37 nM | > 50 µM | – | –
Cc1cc(-c2nnc(NC(=O)C(C)(C)S(=O)(=O)CCCC(F)(F)F)[nH]2)no1 | – | – | 271 nM | > 50 µM
CC(C)(C(=O)Nc1nnc(-c2nccs2)[nH]1)S(=O)(=O)C1CCOCC1 | – | – | 303 nM | > 50 µM
CC(C)CCS(=O)(=O)C(C)(C)C(=O)Nc1nnc(-c2ncco2)[nH]1 | – | – | 172 nM | > 50 µM
Cc1cc(-c2n[nH]c(NC(=O)C(C)(C)S(=O)(=O)C3CCOCC3)n2)n(C)n1 | – | – | 487 nM | > 50 µM
Cc1cc(-c2nnc(NC(=O)C(C)(C)S(=O)(=O)C3CCCCC3)[nH]2)on1 | 55 nM | > 20 µM | – | –
Cc1cc(-c2nnc(NC(=O)C(C)(C)S(=O)(=O)CCC3CCOCC3)[nH]2)on1 | – | – | 142 nM | > 50 µM
Cc1cc(-c2nnc(NC(=O)C(C)(C)S(=O)(=O)CCC(C)C)[nH]2)on1 | – | – | 142 nM | > 50 µM
Cc1nnc(C(C)(C)c2cc(NC(=O)C(C)(C)S(=O)(=O)c3ccc(F)cc3)on2)o1 | 97 nM | > 50 µM | – | –
Cc1nnc(C(C)(C)c2cc(NC(=O)C(C)(C)S(=O)(=O)CCCC(F)(F)F)on2)o1 | 18 nM | 23.1 µM | – | –
Cc1ncc(C(C)(C)c2cc(NC(=O)C(C)(C)S(=O)(=O)C3CCOCC3)on2)s1 | 3.4 nM | > 50 µM | – | –
Cc1ncc(C(C)(C)c2cc(NC(=O)C(C)(C)S(=O)(=O)C3CCN(S(C)(=O)=O)CC3)on2)s1 | 28 nM | 25.1 µM | – | –
CCc1ncc(C(C)(C)c2cc(NC(=O)C(C)(C)S(=O)(=O)C3CCN(S(C)(=O)=O)CC3)on2)o1 | 25 nM | 26.5 µM | – | –
Cc1nnc(C(C)(C)c2cc(NC(=O)C(C)(C)S(=O)(=O)C3CCN(S(C)(=O)=O)CC3)on2)o1 | – | – | 161 nM | > 50 µM
Cc1ncc(C2(c3cc(NC(=O)C(C)(C)S(=O)(=O)C4CCOCC4)on3)CCCC2)o1 [drawing 84] | 4.6 nM | 30 µM | – | –
Cc1ncc(C2(c3cc(NC(=O)C(C)(C)S(=O)(=O)C4CCOCC4)on3)CCCC2)o1 [drawing 89] | – | 30 µM | – | –
